Experimental data reported in BigSolDB 2.1.

Conditions: in water

O=[N+]([O-])c1ccc(/C=C/c2ccc([N+](=O)[O-])cc2S(=O)(=O)[O-])c(S(=O)(=O)[O-])c1.[Na+].[Na+]
Conditions | solubility (mole fraction)
284.85 K | 0.0013
290.35 K | 0.0017
293.05 K | 0.00197
296.45 K | 0.00228
301.45 K | 0.00302
304.55 K | 0.00353
307.75 K | 0.00394
309.85 K | 0.00434
312.05 K | 0.00498
316.25 K | 0.00595
319.25 K | 0.00674
321.95 K | 0.00756
